Measured values as given in the supplement of paper PMC10307832.

How the values were obtained:
Assay in all cases: relative viability (nuclei count vs DMSO), 5 days (fraction); higher = more cells survive
SGI-1776 + Decitabine = compound: CN1CCC(CNc2ccc3ncc(-c4cccc(OC(F)(F)F)c4)n3n2)CC1 [SGI-1776] + Nc1ncn([C@H]2C[C@H](O)[C@@H](CO)O2)c(=O)n1 [Decitabine] (partner 2 µM)
How it was run: (§1)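 Lung cancer cell lines in 1536-well plates got either a single drug or a fixed anchor-drug dose together with five library-drug doses (not always all listed) in √10 steps, by pin tool, on the day after seeding. Nuclei were counted after 5 days, and relative viability is the treated-to-vehicle ratio of nuclei counts. Values are medians of duplicate plates.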

Entinostat + Luminespib = compound: Nc1ccccc1NC(=O)c1ccc(CNC(=O)OCc2cccnc2)cc1 [Entinostat] + CCNC(=O)c1noc(-c2cc(C(C)C)c(O)cc2O)c1-c1ccc(CN2CCOCC2)cc1 [Luminespib] (partner 0.01 µM)
How it was run: as §1

[1] = compound: C1COCCN1C2=NC(=NC3=C2OC4=C3C=CC=N4)C5=CC(=CC=C5)NC(=O)C6=CN=C(C=C6)N + CC(C)C[C@H](NC(=O)[C@H](Cc1ccccc1)NC(=O)c1cnccn1)B(O)O [Bortezomib] (partner 0.002 µM)
How it was run: as §1

[2] = compound: C1COCCN1C2=NC(=NC3=C2OC4=C3C=CC=N4)C5=CC(=CC=C5)NC(=O)C6=CN=C(C=C6)N + C[C@@H](Oc1cc(-c2cnn(C3CCNCC3)c2)cnc1N)c1c(Cl)ccc(F)c1Cl [Crizotinib] (partner 1 µM)
How it was run: as §1

Q: What does the source list for RERF-LC-KJ?
A: relative viability (SGI-1776 + Decitabine; first compound 0.08 µM): 0.67; relative viability (SGI-1776 + Decitabine; first compound 0.8 µM): 0.652; relative viability (SGI-1776 + Decitabine; first compound 2.53 µM): 0.566; relative viability (SGI-1776 + Decitabine; first compound 8 µM): 0.363; relative viability (Entinostat + Luminespib; first compound 0.02 µM): 1.13; relative viability (Entinostat + Luminespib; first compound 0.06325 µM): 1.16; relative viability (Entinostat + Luminespib; first compound 0.2 µM): 1.02; relative viability (Entinostat + Luminespib; first compound 0.6325 µM): 0.438; relative viability (Entinostat + Luminespib; first compound 2 µM): 0.322; relative viability ([1]; first compound 0.02 µM): 1.04; relative viability ([1]; first compound 0.06325 µM): 1.21; relative viability ([1]; first compound 0.2 µM): 1.04; relative viability ([1]; first compound 0.6325 µM): 1.05; relative viability ([1]; first compound 2 µM): 0.798; relative viability ([2]; first compound 0.02 µM): 1.02; relative viability ([2]; first compound 0.06325 µM): 0.913; relative viability ([2]; first compound 0.2 µM): 0.798; relative viability ([2]; first compound 0.6325 µM): 0.794; relative viability ([2]; first compound 2 µM): 0.748

Q: With LU99A as the cell line, how does the relative viability (SGI-1776 + Decitabine; first compound 0.08 µM) read?
A: 0.859

Q: What about the relative viability (SGI-1776 + Decitabine; first compound 0.8 µM) of the same cell line?
A: 0.872

Q: What about the relative viability (SGI-1776 + Decitabine; first compound 2.53 µM) of the same cell line?
A: 0.94

Q: What about the relative viability (SGI-1776 + Decitabine; first compound 8 µM) of the same cell line?
A: 0.876

Q: What about the relative viability (Entinostat + Luminespib; first compound 0.02 µM) of the same cell line?
A: 0.286

Q: And the relative viability (Entinostat + Luminespib; first compound 0.06325 µM)?
A: 0.255

Q: And the relative viability (Entinostat + Luminespib; first compound 0.2 µM)?
A: 0.322

Q: And the relative viability (Entinostat + Luminespib; first compound 0.6325 µM)?
A: 0.211

Q: And the relative viability (Entinostat + Luminespib; first compound 2 µM)?
A: 0.281

Q: What about the relative viability ([1]; first compound 0.02 µM) of the same cell line?
A: 1.12

Q: And the relative viability ([1]; first compound 0.06325 µM)?
A: 1.17

Q: And the relative viability ([1]; first compound 0.2 µM)?
A: 1.07

Q: What about the relative viability ([1]; first compound 0.6325 µM) of the same cell line?
A: 0.748

Q: And the relative viability ([1]; first compound 2 µM)?
A: 0.497

Q: What about the relative viability ([2]; first compound 0.02 µM) of the same cell line?
A: 0.602

Q: What about the relative viability ([2]; first compound 0.06325 µM) of the same cell line?
A: 0.65

Q: And the relative viability ([2]; first compound 0.2 µM)?
A: 0.477

Q: What about the relative viability ([2]; first compound 0.6325 µM) of the same cell line?
A: 0.49

Q: And the relative viability ([2]; first compound 2 µM)?
A: 0.327

Q: How did the relative viability (SGI-1776 + Decitabine; first compound 0.08 µM) turn out when PC-3 [JPC-3] was run?
A: 0.816

Q: And the relative viability (SGI-1776 + Decitabine; first compound 0.8 µM)?
A: 0.824

Q: What about the relative viability (SGI-1776 + Decitabine; first compound 2.53 µM) of the same cell line?
A: 0.786

Q: What about the relative viability (SGI-1776 + Decitabine; first compound 8 µM) of the same cell line?
A: 0.71

Q: And the relative viability (Entinostat + Luminespib; first compound 0.02 µM)?
A: 0.726

Q: And the relative viability (Entinostat + Luminespib; first compound 0.06325 µM)?
A: 0.668

Q: And the relative viability (Entinostat + Luminespib; first compound 0.2 µM)?
A: 0.5

Q: And the relative viability (Entinostat + Luminespib; first compound 0.6325 µM)?
A: 0.51

Q: And the relative viability (Entinostat + Luminespib; first compound 2 µM)?
A: 0.365

Q: What about the relative viability ([1]; first compound 0.02 µM) of the same cell line?
A: 0.799

Q: What about the relative viability ([1]; first compound 0.06325 µM) of the same cell line?
A: 0.748

Q: And the relative viability ([1]; first compound 0.2 µM)?
A: 0.844

Q: What about the relative viability ([1]; first compound 0.6325 µM) of the same cell line?
A: 0.845

Q: And the relative viability ([1]; first compound 2 µM)?
A: 0.634

Q: What about the relative viability ([2]; first compound 0.02 µM) of the same cell line?
A: 0.961

Q: And the relative viability ([2]; first compound 0.06325 µM)?
A: 1.02

Q: What about the relative viability ([2]; first compound 0.2 µM) of the same cell line?
A: 1.02

Q: What about the relative viability ([2]; first compound 0.6325 µM) of the same cell line?
A: 1.04

Q: What about the relative viability ([2]; first compound 2 µM) of the same cell line?
A: 0.64

Q: Which relative viability (SGI-1776 + Decitabine; first compound 0.08 µM) does the source give for NCI-H2126 here?
A: 0.575

Q: What about the relative viability (SGI-1776 + Decitabine; first compound 0.8 µM) of the same cell line?
A: 0.576

Q: And the relative viability (SGI-1776 + Decitabine; first compound 2.53 µM)?
A: 0.559

Q: And the relative viability (SGI-1776 + Decitabine; first compound 8 µM)?
A: 0.54

Q: What about the relative viability (Entinostat + Luminespib; first compound 0.02 µM) of the same cell line?
A: 0.815

Q: What about the relative viability (Entinostat + Luminespib; first compound 0.06325 µM) of the same cell line?
A: 0.906

Q: What about the relative viability (Entinostat + Luminespib; first compound 0.2 µM) of the same cell line?
A: 0.894

Q: And the relative viability (Entinostat + Luminespib; first compound 0.6325 µM)?
A: 0.766

Q: What about the relative viability (Entinostat + Luminespib; first compound 2 µM) of the same cell line?
A: 0.462

Q: What about the relative viability ([1]; first compound 0.02 µM) of the same cell line?
A: 1.07

Q: And the relative viability ([1]; first compound 0.06325 µM)?
A: 1.18

Q: What about the relative viability ([1]; first compound 0.2 µM) of the same cell line?
A: 1.1

Q: And the relative viability ([1]; first compound 0.6325 µM)?
A: 1.03

Q: What about the relative viability ([1]; first compound 2 µM) of the same cell line?
A: 0.879

Q: And the relative viability ([2]; first compound 0.02 µM)?
A: 1.04

Q: What about the relative viability ([2]; first compound 0.06325 µM) of the same cell line?
A: 1.09

Q: And the relative viability ([2]; first compound 0.2 µM)?
A: 1.06

Q: And the relative viability ([2]; first compound 0.6325 µM)?
A: 1

Q: What about the relative viability ([2]; first compound 2 µM) of the same cell line?
A: 0.645
